Measurements reported in US20260297542A1, “HERBICIDE RESISTANT PLANTS” (SYNGENTA CROP PROTECTION AG, priority 2023, published 2026).
Changes are numbered by the printed parent chain.

Columns and labels:
Assay in all cases: E. coli hemG growth inhibition by herbicide, AtPPO1 variant
Type in all cases: cell-based
Settings in all cases: read-out: percentage growth inhibition
AtPPO1 G404A = target: T1, AtPPO1 G404A (Arabidopsis thaliana, UniProt P55826, G404A)
T1 construct: expressed in transfected cells; host or cells: E. coli BL21(DE3) hemG (pET24a, T7 promoter)
T1 sequence (P55826 35-537 G404A): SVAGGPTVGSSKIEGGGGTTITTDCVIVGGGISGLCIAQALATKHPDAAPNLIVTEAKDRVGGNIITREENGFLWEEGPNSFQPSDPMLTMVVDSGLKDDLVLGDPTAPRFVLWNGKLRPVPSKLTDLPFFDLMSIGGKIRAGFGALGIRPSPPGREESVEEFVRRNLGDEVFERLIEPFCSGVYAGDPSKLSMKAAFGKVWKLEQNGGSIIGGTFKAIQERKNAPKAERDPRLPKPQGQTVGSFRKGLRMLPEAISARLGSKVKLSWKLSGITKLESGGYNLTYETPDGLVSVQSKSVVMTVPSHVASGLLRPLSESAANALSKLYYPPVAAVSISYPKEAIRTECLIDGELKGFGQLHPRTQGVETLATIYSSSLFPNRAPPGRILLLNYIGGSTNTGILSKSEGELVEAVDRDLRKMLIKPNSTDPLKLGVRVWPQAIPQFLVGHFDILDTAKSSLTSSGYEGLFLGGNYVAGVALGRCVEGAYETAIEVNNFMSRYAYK
Method in brief: (§1)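 AtPPO1 variants from a site-saturation library, codon-optimised and T7-driven in pET24a, were expressed in E. coli BL21(DE3) lacking hemG (hemG replaced by CmR). Growth in Terrific broth with 0.1 mM IPTG plus 6.25 ppm herbicide 0 or E, 0.78 ppm herbicide B, or DMSO was read as OD600 after 24 h at 37° C; inhibition was calculated against the DMSO culture.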

AtPPO1 K281C = target: T2, AtPPO1 K281C (Arabidopsis thaliana, UniProt P55826, K281C)
T2 construct: expressed in transfected cells; host or cells: E. coli BL21(DE3) hemG (hemG replaced by CmR), pET24a plasmid
T2 sequence (P55826 35-537 K281C): T1 sequence (P55826 35-537 G404A) with K247C, A370G
Method in brief: as §1

AtPPO1 V88I = target: T3, AtPPO1 V88I (Arabidopsis thaliana, UniProt P55826, V88I)
T3 construct: expressed in transfected cells; host or cells: E. coli BL21(DE3) hemG (hemG replaced by CmR), pET24a plasmid
T3 sequence (P55826 35-537 V88I): T1 sequence (P55826 35-537 G404A) with V54I, A370G
Method in brief: as §1

AtPPO1 Y361P = target: T4, AtPPO1 Y361P (Arabidopsis thaliana, UniProt P55826, Y361P)
T4 construct: expressed in transfected cells; host or cells: E. coli BL21(DE3) hemG (pET24a, T7 promoter)
T4 sequence (P55826 35-537 Y361P): T1 sequence (P55826 35-537 G404A) with Y327P, A370G
Method in brief: as §1

C#CCN1C(=O)C(F)(F)Oc2cc(F)c(-n3c(=O)n(C)c(=S)n(C)c3=O)cc21 [Herbicide B, trifludimoxazin]
inhibition at 0.78 ppm (AtPPO1 G404A): 12%
inhibition at 0.78 ppm (AtPPO1 K281C): 35%
inhibition at 0.78 ppm (AtPPO1 V88I): 32%
inhibition at 0.78 ppm (AtPPO1 Y361P): 28%

CCOC(=O)[C@]1(C)CC(c2cc(-n3c(=O)n(C)c(=S)n(C)c3=O)c(F)cc2Cl)=NO1 [Herbicide D, ethyl (5S)-3-[2-chloro-5-(3,5-dimethyl-2,6-dioxo-4-thioxo-1,3,5-triazinan-1-yl)-4-fluoro-phenyl]-5-methyl-4H-isoxazole-5-carboxylate]
inhibition at 6.25 ppm (AtPPO1 G404A): 4%
inhibition at 6.25 ppm (AtPPO1 K281C): 33%
inhibition at 6.25 ppm (AtPPO1 V88I): 43%
inhibition at 6.25 ppm (AtPPO1 Y361P): 36%

CC(C)N(C)S(=O)(=O)NC(=O)c1cc(-n2c(=O)cc(C(F)(F)F)n(C)c2=O)c(F)cc1Cl [Herbicide E, saflufenacil]
inhibition at 6.25 ppm (AtPPO1 G404A): 2%
inhibition at 6.25 ppm (AtPPO1 K281C): 54%
inhibition at 6.25 ppm (AtPPO1 V88I): 66%
inhibition at 6.25 ppm (AtPPO1 Y361P): 38%
